Measurements: patent publication US10350311B2, “Iohexol powder and method of using the same” (Otsuka Pharmaceutical Co., Ltd., priority 2014, dated 2019)

Columns and labels:
Assay type in all cases: physicochemical
[1] = Interparticle spacing calculated from bulk and skeletal density
Experimental: As used herein, the term “interparticle spacing” denotes the percentage of the “bulk” particle volume which is free space. The interparticle spacing can be calculated from the bulk density and skeletal density. As discussed above, bulk density refers to the density determined by dividing the weight of the sample by its measured volume, for example using the USP <616> method. The skeletal density, sometimes referred to as the “true density,” is determined by dividing the weight of a sample by its “true” volume—i.e., the volume excluding interstitial voids and any open porosity in the sample (e.g., determined by gas displacement techniques).

Bulk density = conditions: Table 6
Excerpt: As used herein, the term “bulk density” of a material denotes total mass of the material divided by the total volume occupied by the material. As used herein, the term “interparticle spacing” denotes the percentage of the “bulk” particle volume which is free space. The interparticle spacing can be calculated from the bulk density and skeletal density. As discussed above, bulk density refers to the density determined by dividing the weight of the sample by its measured volume, for example using the USP <616> method. The skeletal density, sometimes referred to as the “true density,” is determined by dividing the weight of a sample by its “true” volume—i.e., the volume excluding interstitial voids and any open porosity in the sample (e.g., determined by gas displacement techniques). Interparticle spacing can be calculated from the bulk density and skeletal density as exemplified herein: if the bulk density of a particular iohexol sample is ˜0.9 g/cm^3, the corresponding “bulk” volume for 1 g of the sample is 1.11 cm^3; and if the skeletal density of the sample is ˜2 g/cm^3, the corresponding “skeletal” volume (i.e. volume with porosity excluded) for 1 g of this sample is 0.5 cm^3. The difference between the “bulk” volume and “skeletal” volume, 0.61 cm^3, represents the volume of the free space (porosity) in the particle. The interparticle spacing is the difference between the “skeletal” volume and bulk volume, divided by the “bulk” volume, expressed as a percentage (i.e. 0.61 cm^3/1.11 cm^3=55% in this example).

[2] = Specific surface area by low-temperature nitrogen adsorption (BET); conditions: for Specific surface area m^2/g: Table 6, Example 5; for Specific Area measured [m^2/g]: BET isotherm, nitrogen adsorption
Experimental: Specific surface area was measured using a low-temperature nitrogen adsorption apparatus, a Pulse Chemisorb 2700.
The specific surface area data, which were evaluated using a BET isotherm, support the nonporous nature/character of the particles. The measured value of the specific surface area was about 2.8 m^2/g, which is consistent with the calculation of the specific surface area of hypothetical material which consists of non-porous spheres with a radius of 3 μm. Considering the skeletal density of crystallized iohexol (2.097 g/cm3), the calculated specific surface area of this hypothetical material is about 4 m^2/g. All data provided by analyses appear to support the conclusion that the crystallized iohexol solid material contains agglomerates consisting of small nonporous particles and that the total specific area is the sum of the outer surface areas of these particles.
Experimentally obtained values of the specific surface area are very low, which is typical of macroporous to non-porous materials. Experimental specific surface area values for all samples are in good agreement with the estimated values based on SEM image analysis, (calculating the particle surface area based on the geometrical shape of particles, i.e., and assuming that the particles are not porous (confirmed by mercury porosimetry as discussed above). Individual values and comparisons of the amount of nitrogen desorption for each sample are summarized in Table 5.

[3] = Dissolution time in water by Modified United States Pharmacopeia Method 641
Experimental: As used herein, the term “Modified United States Pharmacopeia Method 641” denotes a modified form of the Standard United States Pharmacopeia Method 641, where the Modified United States Pharmacopeia Method 641 is carried out as follows: • Place 1.8 g of the particulate iohexol in a meticulously clean, glass-stoppered, 50 mL glass cylinder approximately 1:10 diameter to height in size. • Fill 40 mL of tap water adjusted to 10° C. (±2° C.) into the glass cylinder. • Immediately start shaking the glass cylinder and start recording total time. • Shake the glass cylinder with an up and down movement, keeping the frequency at 12-13 movements per 5 seconds. • After 20 seconds observe for 3 seconds for completeness of dissolution. • Evaluate after 3 seconds, when the bubbles disappear, comparing with pure solvent. • If dissolved completely, record “dissolved in 20 seconds”. • If not dissolved completely, continue shaking for a total time 30 sec • Repeat the dissolution evaluation at 30 seconds, 40 seconds, 1 min., and 1 min. 30 seconds. • Always repeat the dissolution evaluation using the same procedure. • If dissolved completely at time point 1 min 30 sec, record “dissolved in NMT 1 min 30 sec”. • If not dissolved, record “not dissolved in 1 min 30 sec”. 20 oz (600 ml) modified beverage PET bottle for Iohexol Powder for Oral Solution product; 50 ml testing glass cylinder; Tap water. Samples were tested using the Modified USP Method <641> as described herein.

[4] = Particle size distribution (D10, D50, D90); conditions: for Particle Size distribution (μm) D50: Table 6, Example 5; for Particle Size distribution (μm) D10 / Particle Size distribution (μm) D90: Table 6
Excerpt: As used herein, the “D90” of a particulate material denotes a diameter value for the particles in the material at which about 90% of the particles have a diameter below the diameter value. For example, in a sample with a D90 of 20 μm, 90% of the particles in the sample have a diameter of 20 μm or less. As used herein, the “D50” of a material denotes a diameter value for the particles in the material at which about 50% of the particles have a diameter below the diameter value. For example, in a sample with a D50 of 10 μm, 50% of the particles in the sample have a diameter of 10 μm or less. As used herein, the “D10” of a material denotes a diameter value for the particles in the material at which about 10% of the particles have a diameter below the diameter value. For example, in a sample with a D10 of 5 μm, 10% of the particles in the sample have a diameter of 5 μm or less.

[5] = Skeletal density by helium pycnometer; conditions: for Skeletal density (g/cm3): Table 6; for Skeletal density: Table 5, Example 3
Experimental: As used herein, the term “interparticle spacing” denotes the percentage of the “bulk” particle volume which is free space. The interparticle spacing can be calculated from the bulk density and skeletal density. As discussed above, bulk density refers to the density determined by dividing the weight of the sample by its measured volume, for example using the USP <616> method. The skeletal density, sometimes referred to as the “true density,” is determined by dividing the weight of a sample by its “true” volume—i.e., the volume excluding interstitial voids and any open porosity in the sample (e.g., determined by gas displacement techniques). […] The porosity of the iohexol particles was also investigated using mercury intrusion, and the skeletal density was determined by helium pycnometer and physical adsorption of nitrogen.

CC(=O)N(CC(O)CO)c1c(I)c(C(=O)NCC(O)CO)c(I)c(C(=O)NCC(O)CO)c1I (stereo not drawn) [Batch 01206013, iohexol]
Interparticle space (% of bulk volume) ([1]; Table 6, listed as 01206013): 73 % of bulk volume | Bulk density (g/cm3) (Bulk density; listed as 01206013): 0.56 g/cm3 | Specific surface area m^2/g ([2]; listed as 01206013): 4.00 m^2/g | Dissolution time ([3]; Table 4, 1.8 g in 40 mL tap water at 10° C., manual shaking, listed as 01206013): 40 s | Dissolution time ([3]; Table 6, Example 5, listed as 01206013): 40 s | Particle Size distribution (μm) D50 ([4]; listed as 01206013): 10 μm | Particle Size distribution (μm) D10 ([4]; listed as 01206013): 5 μm | Particle Size distribution (μm) D90 ([4]; listed as 01206013): 15 μm

CC(=O)N(CC(O)CO)c1c(I)c(C(=O)NCC(O)CO)c(I)c(C(=O)NCC(O)CO)c1I (stereo not drawn) [Batch 03202012/1, iohexol]
Interparticle space (% of bulk volume) ([1]; Table 6, listed as 03202012/1): 56 % of bulk volume | Bulk density (g/cm3) (Bulk density; listed as 03202012/1): 0.90 g/cm3 | Skeletal density (g/cm3) [5]: 2.0 g/cm3 | Specific surface area m^2/g ([2]; listed as 03202012/1): 0.50 m^2/g | Dissolution time ([3]; Table 4, 1.8 g in 40 mL tap water at 10° C., manual shaking, listed as 03202012/1): 60 s | Dissolution time ([3]; Table 6, Example 5, listed as 03202012/1): 60 s | Particle Size distribution (μm) D50 ([4]; listed as 03202012/1): 14 μm | Particle Size distribution (μm) D10 ([4]; listed as 03202012/1): 9 μm | Particle Size distribution (μm) D90 ([4]; listed as 03202012/1): 22 μm

CC(=O)N(CC(O)CO)c1c(I)c(C(=O)NCC(O)CO)c(I)c(C(=O)NCC(O)CO)c1I (stereo not drawn) [Batch 03202012/8, iohexol]
Interparticle space (% of bulk volume) ([1]; Table 6, listed as 03202012/8): 56 % of bulk volume | Bulk density (g/cm3) (Bulk density; listed as 03202012/8): 0.90 g/cm3 | Skeletal density (g/cm3) [5]: 2.0 g/cm3 | Specific surface area m^2/g ([2]; listed as 03202012/8): 0.50 m^2/g | Dissolution time ([3]; Table 4, 1.8 g in 40 mL tap water at 10° C., manual shaking, listed as 03202012/8): 40 s | Dissolution time ([3]; Table 6, Example 5, listed as 03202012/8): 40 s | Particle Size distribution (μm) D50 ([4]; listed as 03202012/8): 12 μm | Particle Size distribution (μm) D10 ([4]; listed as 03202012/8): 7 μm | Particle Size distribution (μm) D90 ([4]; listed as 03202012/8): 19 μm

CC(=O)N(CC(O)CO)c1c(I)c(C(=O)NCC(O)CO)c(I)c(C(=O)NCC(O)CO)c1I (stereo not drawn) [Batch 03202012/9, iohexol]
Interparticle space (% of bulk volume) ([1]; Table 6, listed as 03202012/9): 56 % of bulk volume | Bulk density (g/cm3) (Bulk density; listed as 03202012/9): 0.90 g/cm3 | Skeletal density (g/cm3) [5]: 2.0 g/cm3 | Specific surface area m^2/g ([2]; listed as 03202012/9): 0.50 m^2/g | Dissolution time ([3]; Table 4, 1.8 g in 40 mL tap water at 10° C., manual shaking, listed as 03202012/9): 60 s | Dissolution time ([3]; Table 6, Example 5, listed as 03202012/9): 60 s | Particle Size distribution (μm) D50 ([4]; listed as 03202012/9): 20 μm | Particle Size distribution (μm) D10 ([4]; listed as 03202012/9): 11 μm | Particle Size distribution (μm) D90 ([4]; listed as 03202012/9): 35 μm

CC(=O)N(CC(O)CO)c1c(I)c(C(=O)NCC(O)CO)c(I)c(C(=O)NCC(O)CO)c1I (stereo not drawn) [Batch 03302012, iohexol]
Interparticle space (% of bulk volume) ([1]; Table 6, listed as 03302012): 73 % of bulk volume | Bulk density (g/cm3) (Bulk density; listed as 03302012): 0.56 g/cm3 | Specific surface area m^2/g ([2]; listed as 03302012): 4.00 m^2/g | Dissolution time ([3]; Table 4, 1.8 g in 40 mL tap water at 10° C., manual shaking, listed as 03302012): 40 s | Dissolution time ([3]; Table 6, Example 5, listed as 03302012): 40 s | Particle Size distribution (μm) D50 ([4]; listed as 03302012): 10 μm | Particle Size distribution (μm) D10 ([4]; listed as 03302012): 5 μm | Particle Size distribution (μm) D90 ([4]; listed as 03302012): 16 μm

CC(=O)N(CC(O)CO)c1c(I)c(C(=O)NCC(O)CO)c(I)c(C(=O)NCC(O)CO)c1I (stereo not drawn) [Conventional Sample #1, iohexol]
Interparticle space (% of bulk volume) ([1]; Table 6): 56 % of bulk volume | Bulk density (g/cm3) (Bulk density): 0.90 g/cm3 | Skeletal density (g/cm3) [5]: 2.0 g/cm3 | Specific surface area m^2/g [2]: 0.50 m^2/g | Dissolution time ([3]; Table 6, Example 5): 90 s | Particle Size distribution (μm) D10 [4]: 7 μm | Particle Size distribution (μm) D90 [4]: 61 μm | Particle Size distribution (μm) D50 [4]: 27 μm

CC(=O)N(CC(O)CO)c1c(I)c(C(=O)NCC(O)CO)c(I)c(C(=O)NCC(O)CO)c1I (stereo not drawn) [Conventional Sample #2, iohexol]
Interparticle space (% of bulk volume) ([1]; Table 6): 56 % of bulk volume | Bulk density (g/cm3) (Bulk density): 0.90 g/cm3 | Skeletal density (g/cm3) [5]: 2.0 g/cm3 | Specific surface area m^2/g [2]: 0.50 m^2/g | Dissolution time ([3]; Table 6, Example 5): 90 s | Particle Size distribution (μm) D10 [4]: 7 μm | Particle Size distribution (μm) D90 [4]: 66 μm | Particle Size distribution (μm) D50 [4]: 29 μm

CC(=O)N(CC(O)CO)c1c(I)c(C(=O)NCC(O)CO)c(I)c(C(=O)NCC(O)CO)c1I (stereo not drawn) [SDI, iohexol]
Skeletal density [5]: 2.029 g/mL | Skeletal density ([5]; listed as spray dried iohexol): 2.029 g/mL | Specific Area measured [m^2/g] ([2]; Table 5): <1 m^2/g | Specific Area measured [m^2/g] ([2]; Table 5, listed as spray dried iohexol): less than 1 m^2/g | Specific Area estimated [m^2/g] ([2]; Table 5, calculated from SEM geometry assuming non-porous spheres): 0.5^b m^2/g | Relative desorbed amount Ad/Ad(crystallized) ([2]; Table 5, nitrogen desorbed relative to crystallized iohexol): 0.08 | Specific surface area m^2/g ([2]; listed as spray dried iohexol): about 0.5 m^2/g
